Assay results reported in patent US10899737B2, “Piperazine carbamates and methods of making and using same” (Lundbeck La Jolla Research Center, Inc., priority 2016, dated 2021).

Key:
MAGL [1] = target: T1, MAGL (Homo sapiens, UniProt Q99685); assay: In vitro competitive activity-based protein profiling (human), MAGL; assay type: biochemical; settings: for inhibition at 1 µM: 1 μM inhibitor, human proteome, 30 min preincubation at 37° C, read-out: MAGL % inh. 1 μM (human); for IC50: human PC3
T1 construct: Proteomes (human prefrontal cortex or cell membrane fractions); from tissue
T1 sequence (Q99685 1-303): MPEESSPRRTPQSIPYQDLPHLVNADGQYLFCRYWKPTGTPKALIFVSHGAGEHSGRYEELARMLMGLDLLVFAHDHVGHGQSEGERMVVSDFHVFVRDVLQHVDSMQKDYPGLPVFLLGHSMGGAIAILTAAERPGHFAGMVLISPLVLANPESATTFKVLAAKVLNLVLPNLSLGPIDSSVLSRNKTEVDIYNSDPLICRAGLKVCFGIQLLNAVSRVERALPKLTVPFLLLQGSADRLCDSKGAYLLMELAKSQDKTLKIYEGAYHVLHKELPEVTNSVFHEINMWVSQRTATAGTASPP
Outline: (§1)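 Human prefrontal cortex or cell membrane proteomes (1.0-2.0 mg/mL protein) preincubated 30 min at 37° C with inhibitor, then labeled 30 min RT with FP-Rh or JW912 probe. After SDS-PAGE, activity taken from fluorescent band intensity for each enzyme.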

ABHD6 [2] = target: T2, ABHD6 (Homo sapiens, UniProt Q9BV23); assay: In vitro competitive activity-based protein profiling (human), ABHD6; assay type: biochemical; settings: human PC3
T2 construct: Proteomes (human prefrontal cortex or cell membrane fractions); endogenous in cells; human prefrontal cortex
T2 sequence (Q9BV23 1-337): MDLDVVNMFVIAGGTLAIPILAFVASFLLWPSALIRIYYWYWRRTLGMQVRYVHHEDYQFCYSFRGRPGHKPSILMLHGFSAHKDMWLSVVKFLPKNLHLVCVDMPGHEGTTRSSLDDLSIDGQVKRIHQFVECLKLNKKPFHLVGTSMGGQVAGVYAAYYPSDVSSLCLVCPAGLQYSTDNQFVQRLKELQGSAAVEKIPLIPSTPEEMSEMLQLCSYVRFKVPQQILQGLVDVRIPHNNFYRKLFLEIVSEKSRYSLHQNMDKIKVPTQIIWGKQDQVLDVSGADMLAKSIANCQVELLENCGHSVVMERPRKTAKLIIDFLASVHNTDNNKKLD
Outline: as §1

MAGL [3] = target: T3, MAGL (Mus musculus, UniProt O35678); assay: In vitro competitive activity-based protein profiling (mouse), MAGL; assay type: biochemical; settings: for inhibition at 1 µM: 1 μM inhibitor, mouse brain membrane fraction or cell lysates, read-out: MAGL % inh. 1 μM (mouse); for IC50: mouse proteome
T3 construct: Proteomes (mouse brain membrane fraction or cell lysates); from tissue; host or cells: mouse brain membrane fraction or cell lysates
T3 sequence (O35678 1-303): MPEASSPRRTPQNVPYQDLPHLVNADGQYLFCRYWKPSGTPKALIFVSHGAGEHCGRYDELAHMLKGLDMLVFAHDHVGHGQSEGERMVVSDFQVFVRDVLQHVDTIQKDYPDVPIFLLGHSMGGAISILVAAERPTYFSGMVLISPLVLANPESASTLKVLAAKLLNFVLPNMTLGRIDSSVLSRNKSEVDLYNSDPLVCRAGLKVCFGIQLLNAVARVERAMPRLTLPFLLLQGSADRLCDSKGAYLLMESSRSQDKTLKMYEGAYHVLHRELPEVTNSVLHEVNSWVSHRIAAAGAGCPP
Outline: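 Mouse brain membrane fraction or cell lysate proteomes (50 μL, 1.0 mg/mL total protein) were preincubated with inhibitors at varying concentrations for 30 min at 37° C. FP-Rh (1.0 μL, 50 μM in DMSO) was then added for a further 30 min at 37° C. Samples were quenched with 4× SDS loading buffer and resolved by SDS-PAGE. MAGL activity was quantified from fluorescent gel band intensity using ImageJ 1.49 k.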

ABHD6 [4] = target: T4, ABHD6 (Mus musculus, UniProt Q8R2Y0); assay: In vitro competitive activity-based protein profiling (mouse), ABHD6; assay type: biochemical; settings: 1 μM inhibitor, mouse brain membrane fraction or cell lysates; read-out: ABHD6 % inh. 1 μM (mouse)
T4 construct: Proteomes (mouse brain membrane fraction or cell lysates); from tissue; host or cells: mouse brain membrane fraction or cell lysates
T4 sequence (Q8R2Y0 1-336): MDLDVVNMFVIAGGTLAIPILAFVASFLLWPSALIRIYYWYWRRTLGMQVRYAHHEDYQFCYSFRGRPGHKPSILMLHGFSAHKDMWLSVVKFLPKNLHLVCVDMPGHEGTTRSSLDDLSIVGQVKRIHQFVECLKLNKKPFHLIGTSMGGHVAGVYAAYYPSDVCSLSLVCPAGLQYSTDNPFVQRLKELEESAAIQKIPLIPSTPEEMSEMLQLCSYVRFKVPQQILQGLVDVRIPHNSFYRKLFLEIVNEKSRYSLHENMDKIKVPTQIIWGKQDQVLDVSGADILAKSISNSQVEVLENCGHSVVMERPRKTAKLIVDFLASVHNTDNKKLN
Outline: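 Mouse brain membrane proteome or cell lysate (1.0 mg/mL protein) preincubated 30 min at 37 °C with inhibitor, then labelled 30 min at 37 °C with FP-rhodamine probe. Remaining MAGL and ABHD6 activity quantified by in-gel fluorescence band intensity after SDS-PAGE; values are % inhibition at 1 μM.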

MAGL [5] = target: T3, MAGL; assay: Mouse brain proteomes from inhibitor treated mice, MAGL inhibition; assay type: in vivo; settings: 5 mg/kg oral gavage, C57Bl/6J mouse brain, 4 h following administration; read-out: MAGL % inh. 5 mg/kg (mouse)
Method: Preparation of Mouse Brain Proteomes from Inhibitor Treated Mice.
Inhibitors were administered to wild-type C57Bl/6J by oral gavage in a vehicle of polyethylene glycol. Each animal was sacrificed 4 h following administration and brain proteomes were prepared and analyzed according to previously established methods (See Niphakis, M. J., et al. (2011) ACS Chem. Neurosci. and Long, J. Z., et al. Nat. Chem. Biol. 5:37-44).

| SMILES | inhibition at 1 µM (MAGL [1]) | IC50 (MAGL [1]) | IC50 (ABHD6 [2]) | inhibition at 1 µM (MAGL [3]) | inhibition at 1 µM (ABHD6 [4]) | inhibition at 5 mg/kg (MAGL [5]) | IC50 (MAGL [3]) |
| --- | --- | --- | --- | --- | --- | --- | --- |
| O=C(O)CN1CCC(c2cc(C(F)(F)F)ccc2CN2CCN(C(=O)OC(C(F)(F)F)C(F)(F)F)CC2)CC1 [Example 31, 2-(4-(2-((4-(((1,1,1,3,3,3-Hexafluoropropan-2-yl)oxy)carbonyl)piperazin-1-yl)methyl)-5-(trifluoromethyl)phenyl)piperidin-1-yl)acetic Acid] | ≥ 75% | 0.1 to 1 µM | 1 to 10 µM | ≥ 75% | 0 to 25% | 0 to 25% |  |
| O=C(O)CN1CC2CN(c3cc(C(F)(F)F)ccc3CN3CCN(C(=O)OC(C(F)(F)F)C(F)(F)F)CC3)CC2C1 (stereo not shown) [Example 15, 2-(5-(2-((4-(((1,1,1,3,3,3-Hexafluoropropan-2-yl)oxy)carbonyl)piperazin-1-yl)methyl)-5-(trifluoromethyl)phenyl)hexahydropyrrolo[3,4-c]pyrrol-2(1H)-yl)acetic Acid] | ≥ 75% | ≤ 0.1 µM | 1 to 10 µM | ≥ 75% | 0 to 25% | 0 to 25% |  |
| O=C(O)CN1CCC2(CC1)CN(c1cc(C(F)(F)F)ccc1CN1CCN(C(=O)OC(C(F)(F)F)C(F)(F)F)CC1)C2 [Example 17, 2-(2-(2-((4-(((1,1,1,3,3,3-Hexafluoropropan-2-yl)oxy)carbonyl)piperazin-1-yl)methyl)-5-(trifluoromethyl)phenyl)-2,7-diazaspiro[3.5]nonan-7-yl)acetic Acid] | ≥ 75% | ≤ 0.1 µM | 1 to 10 µM | ≥ 75% | 0 to 25% | 0 to 25% |  |
| O=C(O)CN1CC2(CCN(c3cc(C(F)(F)F)ccc3CN3CCN(C(=O)OC(C(F)(F)F)C(F)(F)F)CC3)CC2)C1 [Example 21, 2-(7-(2-((4-(((1,1,1,3,3,3-Hexafluoropropan-2-yl)oxy)carbonyl)piperazin-1-yl)methyl)-5-(trifluoromethyl)phenyl)-2,7-diazaspiro[3.5]nonan-2-yl)acetic Acid] | ≥ 75% | ≤ 0.1 µM | 1 to 10 µM | ≥ 75% | 0 to 25% | 0 to 25% | ≤ 0.1 µM |
| O=C(OC(C(F)(F)F)C(F)(F)F)N1CCN(Cc2cccc(Cl)c2C2(C(=O)O)CCCC2)CC1 [Example 44, 1-(2-chloro-6-((4-(((1,1,1,3,3,3-hexafluoropropan-2-yl)oxy)carbonyl)piperazin1-yl)methyl)phenyl)cyclopentane-1-carboxylic acid] |  | ≤ 0.1 µM | 1 to 10 µM | ≥ 75% | 50 to 75% | ≥ 75% |  |
| O=C(O)CN1CC2(CCN(c3cc(C(F)(F)F)ccc3CN3CCN(C(=O)OC(C(F)(F)F)C(F)(F)F)CC3)C2)C1 [Example 22, 2-(6-(2-((4-(((1,1,1,3,3,3-Hexafluoropropan-2-yl)oxy)carbonyl)piperazin-1-yl)methyl)-5-(trifluoromethyl)phenyl)-2,6-diazaspiro[3.4]octan-2-yl)acetic Acid] | ≥ 75% | ≤ 0.1 µM | 1 to 10 µM | ≥ 75% | 0 to 25% | 0 to 25% |  |

Other lines, results leading:

| inhibition at 1 µM (MAGL [1]) | IC50 (MAGL [1]) | IC50 (ABHD6 [2]) | inhibition at 1 µM (MAGL [3]) | inhibition at 1 µM (ABHD6 [4]) | inhibition at 5 mg/kg (MAGL [5]) | IC50 (MAGL [3]) | SMILES |
| --- | --- | --- | --- | --- | --- | --- | --- |
| ≥ 75% | ≤ 0.1 µM | 1 to 10 µM | ≥ 75% | 0 to 25% | 0 to 25% |  | O=C(O)CN1CCCC12CCN(c1cc(C(F)(F)F)ccc1CN1CCN(C(=O)OC(C(F)(F)F)C(F)(F)F)CC1)CC2 [Example 20, 2-(8-(2-((4-(((1,1,1,3,3,3-Hexafluoropropan-2-yl)oxy)carbonyl)piperazin-1-yl)methyl)-5-(trifluoromethyl)phenyl)-1,8-diazaspiro[4.5]decan-1-yl)acetic Acid] |
| ≥ 75% | ≤ 0.1 µM | 1 to 10 µM | ≥ 75% | ≥ 75% | ≥ 75% |  | O=C(O)CC1CCN(c2cc(C(F)(F)F)ccc2CN2CCN(C(=O)OC(C(F)(F)F)C(F)(F)F)CC2)CC1 [Example 43, 2-(1-(2-((4-(((1,1,1,3,3,3-hexafluoropropan-2-yl)oxy)carbonyl)piperazin-1-yl)methyl)-5-(trifluoromethyl)phenyl)piperidin-4-yl)acetic acid] |
| ≥ 75% | ≤ 0.1 µM | 0.1 to 1 µM | ≥ 75% | ≥ 75% | 0 to 25% | ≤ 0.1 µM | O=C(O)Cn1ccc(-c2cc(C(F)(F)F)ccc2CN2CCN(C(=O)OC(C(F)(F)F)C(F)(F)F)CC2)n1 [Example 3, 2-(3-(2-((4-(((1,1,1,3,3,3-Hexafluoropropan-2-yl)oxy)carbonyl)piperazin-1-yl)methyl)-5-(trifluoromethyl)phenyl)-1H-pyrazol-1-yl)acetic Acid] |
| ≥ 75% | ≤ 0.1 µM | 1 to 10 µM | ≥ 75% | 0 to 25% | 50 to 75% |  | O=C(O)CN1CCC(c2cc(C(F)(F)F)ccc2CN2CCN(C(=O)OC(C(F)(F)F)C(F)(F)F)CC2)C1 (stereo not shown) [Example 2, 2-(3-(2-((4-(((1,1,1,3,3,3-Hexafluoropropan-2-yl)oxy)carbonyl)piperazin-1-yl)methyl)-5-(trifluoromethyl)phenyl)pyrrolidin-1-yl)acetic Acid] |
| ≥ 75% | ≤ 0.1 µM | 1 to 10 µM | ≥ 75% | 0 to 25% | 0 to 25% |  | O=C(O)CN1CC2CC1CN2c1cc(C(F)(F)F)ccc1CN1CCN(C(=O)OC(C(F)(F)F)C(F)(F)F)CC1 (stereo not shown) [Example 25, 2-(5-(2-((4-(((1,1,1,3,3,3-Hexafluoropropan-2-yl)oxy)carbonyl)piperazin-1-yl)methyl)-5-(trifluoromethyl)phenyl)-2,5-diazabicyclo[2.2.1]heptan-2-yl)acetic Acid] |
| ≥ 75% | ≤ 0.1 µM | 0.1 to 1 µM | ≥ 75% | ≥ 75% | 25 to 50% |  | CC1(C(=O)O)CCN(c2cc(C(F)(F)F)ccc2CN2CCN(C(=O)OC(C(F)(F)F)C(F)(F)F)CC2)C1 (stereo not shown) [Example 55, 1-{2-[(4-{[(1,1,1,3,3,3-hexafluoropropan-2-yl)oxy]carbonyl}piperazin-1-yl)methyl]-5-(trifluoromethyl)phenyl}-3-methylpyrrolidin-3-carboxylic acid] |
